In patent US9611295B2, “Treatment of IL-17 mediated disease by blocking SEFIR-SEFIR interactions” (THE CLEVELAND CLINIC FOUNDATION, priority 2011, dated 2017):

How the values were obtained:
[1] = system: IL-17-induced pulmonary inflammation; experiment: IL-17-induced pulmonary inflammation in BALB/c mice; format: in vivo, mouse
Experimental: FIG. 5 provides bar graph and staining data showing that a cell-permeable CC′ loop decoy peptide inhibits IL-17- and IL-25-induced pulmonary inflammation. Wild-type (WT) female BALB/c mice (n=4 mice per group) were pretreated with DMSO, scrambled peptide, or the CC′ loop decoy peptide for 4 hours, after which they were administered saline, IL-17, or IL-25 intranasally. Mice were sacrificed and analyzed 16 hours after injection with IL-17 or 4 days after injection with IL-25. […] All experiments were performed three times. *P<0.05.
It has been shown that Act1 plays an essential role in IL-17- and IL-25-mediated pulmonary inflammation. Thus, the inventors examined whether the Act1 SEFIR domain CC′ loop decoy peptide ameliorated IL-17- and IL-25-induced airway inflammation in vivo. BALB/c mice were pretreated with scrambled peptide or with the Act1 SEFIR domain CC′ loop decoy peptide for 4 hours, after which we injected the mice intranasally with IL-17 or IL-25. […] Consistently, IL-17-induced lung and airway recruitment of granulocytes was reduced in mice pretreated with the CC′ loop decoy peptide compared to that in mice pretreated with the scrambled peptide (FIG. 5C). The lower grade of pulmonary inflammation in the mice treated with the CC′ loop decoy peptide correlated with the decreased IL-17-dependent expression of genes encoding MCP-1 and GM-CSF in the lung tissues (FIG. 5D). […] IL-25-induced lung and airway recruitment of granulocytes, predominantly eosinophils, as well as mucin production, as determined by Periodic acid-Schiff (PAS) staining, were reduced in mice pretreated with the CC′ loop decoy peptide compared to that in mice pretreated with the scrambled peptide (FIG. 5G). The decreased pulmonary inflammation in […] correlated with decreased expression of genes encoding the TH2-type cytokines IL-5 and IL-13 in the lungs (FIG. 5H).
Intranasal injection of mice with IL-17 and IL-25: Wild-type BALB/c female mice were pretreated with dimethyl sulfoxide (DMSO, the solvent for peptides), scrambled peptide, or the CC′ loop decoy peptide for 4 hours, after which they underwent intranasal administration of saline, IL-17 (4 μg/mouse), or IL-25 (4 μg/mouse). For IL-25-treated mice, decoy peptides were administrated daily through intranasal injection after pretreatment. Mice were anesthetized with isoflurane and sacrificed. BAL fluid was collected 16 hours after injection with IL-17 or 4 days after injection with IL-25. A total of 0.7 ml of HL-1 medium (BioWhittaker®) was used to obtain BAL fluid through trachea with a blunt needle and a 1-ml syringe. Cytospin slide preparations were obtained with a Shandon CytoSpin III Cytocentrifuge (Shandon/Thermo Scientific). Differential leukocyte counts were obtained on cytospin slide preparations after incubation with Diff Quik Giemsa stain. Cytokines in the BAL were analyzed by MultipleX plate (Invitrogen®). H&E and PAS staining were performed on lung tissues after fixation in 10% neutral-buffered formalin and paraffin embedding to detect pulmonary inflammation and for assessment of goblet cell metaplasia and mucin accumulation in airway epithelial cells.

[2] = system: IL-17-mediated expression of Cxcl1; experiment: IL-17-mediated Cxcl1 mRNA expression in MEFs, real-time RT-PCR; format: cell-based, mouse; conditions: peptides 200 μM for 24 hours, then IL-17 for 3 hours
Experimental: FIG. 4 provides data showing that a cell-permeable CC′ loop decoy peptide disrupts the interaction between Act1 and IL-17RA and inhibits IL-17R and IL-25R signaling. FIG. 4A provides sequences of Antennapedia homeodomain (Antp) (SEQ ID NO: 11)and decoy peptides (SEQ ID NOS 23-25 and 17, respectively, in order of appearance) with the Antp sequence underlined. FIG. 4B provides flow cytometry results based on experiments in which MEFs expressing IL-17RB were incubated for 2 or 24 hours with the indicated FITC-tagged peptides (200 μM) and were then analyzed by flow cytometry. […] The percentages of FITC-positive cells in the treated samples are shown. […] FIG. 4D provides Western blot results of experiments in which MEFs expressing IL-17RB were incubated with the indicated peptides (200 μM) for 24 hours after which they were treated with IL-17 or IL-25 and then analyzed by Western blotting with the indicated antibodies. […] The abundances of Cxcl1 and Il13 mRNAs were then measured by real-time RT-PCR. […]
Decoy peptides are based on surface-exposed regions of the primary sequence of a protein to mimic a putative interaction interface. […] These decoy peptides were also tagged at their C-termini with fluorescein isothiocyanate (FITC) to enable their cell-penetrating efficiency to be evaluated by flow cytometric sanalysis. […]

[3] = 4 hours pretreatment, intranasal IL-17, 16 hours, vs scrambled peptide

DRQIKIWFQNRRMKWKKLDEDEHGLHTKY [CC′ loop decoy peptide]
GM-CSF in BAL fluid [1, 3]: substantially reduced
MCP-1 in BAL fluid [1, 3]: substantially reduced
neutrophil counts in BAL fluid [1, 3]: substantially reduced
neutrophil counts in BAL fluid ([1]; 4 hours pretreatment, intranasal IL-17, 16 hours, vs scrambled peptide, listed as CC′ peptide): reduced accumulation
dose dependence of inhibition of IL-17-induced pulmonary inflammation ([1]; data not shown): dose-dependent manner
IL-17-dependent expression of genes encoding MCP-1 and GM-CSF in lung tissues ([1]; real-time RT-PCR): decreased
IL-17-induced lung and airway recruitment of granulocytes (H&E) ([1]; vs scrambled peptide): reduced
inhibition of IL-17-mediated expression of Cxcl1 [2]: ~50 % inhibition
